These results are taken from ChEMBL document CHEMBL1146205, “Isatin sulfonamide analogs containing a Michael addition acceptor: a new class of caspase 3/7 inhibitors” (J Med Chem, 2007).

A value given as a limit tells only on which side of the number the result lay.

Broadly, the logP is the decadic logarithm of the partition coefficient of the neutral form, usually between octanol and water. What is called IC50 is the concentration needed to halve the response being measured.

Data set [1] is described as follows: Partition coefficient of the compound, log P. The format is physicochemical. To be noted: octanol/water.
The target of data set [2] is T1, Caspase-1 (Homo sapiens, UniProt P29466).
T1 sequence (P29466 whole entry): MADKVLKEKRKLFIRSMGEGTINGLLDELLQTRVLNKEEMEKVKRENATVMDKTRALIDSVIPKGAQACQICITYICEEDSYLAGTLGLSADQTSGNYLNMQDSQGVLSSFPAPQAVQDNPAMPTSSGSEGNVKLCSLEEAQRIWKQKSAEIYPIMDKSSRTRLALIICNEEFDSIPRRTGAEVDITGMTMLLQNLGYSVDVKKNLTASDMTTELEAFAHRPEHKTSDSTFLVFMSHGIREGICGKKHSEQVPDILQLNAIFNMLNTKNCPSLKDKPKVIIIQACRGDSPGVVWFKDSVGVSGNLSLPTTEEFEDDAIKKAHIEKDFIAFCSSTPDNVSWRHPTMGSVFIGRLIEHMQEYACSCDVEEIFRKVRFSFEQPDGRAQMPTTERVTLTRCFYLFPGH
In words: Inhibition of human recombinant caspase 1.

Data set [3] concerns the target T2, Caspase-3 (Homo sapiens, UniProt P42574).
T2 sequence (P42574 whole entry): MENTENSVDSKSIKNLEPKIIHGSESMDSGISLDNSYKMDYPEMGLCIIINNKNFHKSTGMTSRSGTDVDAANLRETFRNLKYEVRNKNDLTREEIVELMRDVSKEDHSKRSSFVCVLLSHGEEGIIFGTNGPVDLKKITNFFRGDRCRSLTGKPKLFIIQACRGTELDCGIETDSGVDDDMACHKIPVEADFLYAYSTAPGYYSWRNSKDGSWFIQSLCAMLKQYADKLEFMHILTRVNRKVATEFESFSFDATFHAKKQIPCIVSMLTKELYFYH
In words: Inhibition of human recombinant caspase 3.

Data set [4] concerns the target T3, Caspase-6 (Homo sapiens, UniProt P55212).
T3 sequence (P55212 whole entry): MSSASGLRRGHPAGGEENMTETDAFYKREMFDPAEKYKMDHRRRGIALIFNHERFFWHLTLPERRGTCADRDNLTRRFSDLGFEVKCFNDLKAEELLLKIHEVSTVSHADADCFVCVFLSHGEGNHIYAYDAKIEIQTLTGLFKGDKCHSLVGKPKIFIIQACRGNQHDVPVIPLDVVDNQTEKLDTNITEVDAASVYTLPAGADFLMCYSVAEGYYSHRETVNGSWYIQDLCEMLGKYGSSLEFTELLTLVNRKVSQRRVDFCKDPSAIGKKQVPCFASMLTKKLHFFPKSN
In words: Inhibition of human recombinant caspase 6.

The target of data set [5] is T4, Caspase-7 (Homo sapiens, UniProt P55210).
T4 sequence (P55210 whole entry): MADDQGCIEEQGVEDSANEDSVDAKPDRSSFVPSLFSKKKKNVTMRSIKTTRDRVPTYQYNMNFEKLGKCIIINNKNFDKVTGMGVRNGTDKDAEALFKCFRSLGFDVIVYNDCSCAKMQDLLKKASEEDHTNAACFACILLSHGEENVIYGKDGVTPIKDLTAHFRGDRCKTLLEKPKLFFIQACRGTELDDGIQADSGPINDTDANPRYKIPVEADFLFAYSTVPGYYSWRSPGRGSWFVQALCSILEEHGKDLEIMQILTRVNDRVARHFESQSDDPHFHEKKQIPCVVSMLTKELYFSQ
In words: Inhibition of human recombinant caspase 7.

Data set [6] deals with Caspase-8 (Homo sapiens, UniProt Q14790). In words: Inhibition of human recombinant caspase 8.
Sequence of Caspase-8 (Q14790 217-374 limits assumed): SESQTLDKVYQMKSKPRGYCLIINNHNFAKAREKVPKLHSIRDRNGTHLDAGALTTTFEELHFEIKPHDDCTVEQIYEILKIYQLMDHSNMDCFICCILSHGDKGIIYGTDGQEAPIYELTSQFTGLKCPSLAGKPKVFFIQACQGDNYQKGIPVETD
Sequence of Caspase-8 (Q14790 385-479 limits assumed): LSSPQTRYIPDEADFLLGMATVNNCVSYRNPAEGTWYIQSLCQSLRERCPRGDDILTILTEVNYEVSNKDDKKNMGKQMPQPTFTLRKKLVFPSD

`O=C1C(=O)N(Cc2ccc(OCCF)cc2)c2ccc(S(=O)(=O)N3CCC[C@H]3COc3ccccc3)cc21`: the logP in data set [1] was 4.19.

Regarding `N#CC(C#N)=C1C(=O)N(Cc2ccccc2)c2ccc(S(=O)(=O)N3CCC[C@H]3COc3ccccc3)cc21`, the logP in data set [1] is 3.5. Besides, the IC50 is 6.22 µM in data set [2]; 27.8 nM in data set [3]; 918 nM in data set [4]; 51.7 nM in data set [5]; above 50 µM in data set [6].

In data set [1], `N#CC(C#N)=C1C(=O)N(Cc2ccccc2)c2ccc(S(=O)(=O)N3CCC[C@H]3COc3cccnc3)cc21` had a logP of 2.45. In addition, the IC50 in data set [2] was 3.25 µM; in data set [3], 7.6 nM; in data set [4] it was 823 nM; in data set [5], 32.8 nM; in data set [6], above 50 µM.

In the case of `N#CC(C#N)=C1C(=O)N(Cc2ccc(O)cc2)c2ccc(S(=O)(=O)N3CCC[C@H]3COc3cccnc3)cc21`, the logP in data set [1] is 1.77. Moreover, the IC50 was 2.72 µM in data set [2]; 7.8 nM in data set [3]; 650 nM in data set [4]; 28.3 nM in data set [5]; above 50 µM in data set [6].

The compound `O=C1C(=O)N(Cc2ccc(O)cc2)c2ccc(S(=O)(=O)N3CCC[C@H]3COc3cccnc3)cc21` returned a logP in data set [1] of 2.25. Moreover, the IC50 in data set [2] is above 15 µM; in data set [3], 3.9 nM; in data set [4], 9550 nM; in data set [5] it was 11.7 nM; in data set [6], above 50 µM.

`O=C1C(=O)N(Cc2ccc(Br)cc2)c2ccc(S(=O)(=O)N3CCC[C@H]3COc3cccnc3)cc21`: the logP in data set [1] was 3.76. The IC50 in data set [2] was above 15 µM; in data set [3], 3.6 nM; in data set [4], 5030 nM; in data set [5], 6.6 nM; in data set [6], above 50 µM.

In data set [1], `O=C1C(=O)N(Cc2ccc(Br)cc2)c2ccc(S(=O)(=O)N3CCC[C@H]3COc3ccccc3)cc21` registered a logP of 4.82. Further, the IC50 is above 15 µM in data set [2]; 9.85 nM in data set [3]; 8900 nM in data set [4]; 34.8 nM in data set [5]; above 50 µM in data set [6].

Compound `N#CC(C#N)=C1C(=O)Nc2ccc(S(=O)(=O)N3CCC[C@H]3COc3ccccc3)cc21` registered a logP in data set [1] of 1.07. Further, the IC50 is 1.83 µM in data set [2]; 272 nM in data set [3]; 407 nM in data set [4]; 1590 nM in data set [5]; above 50 µM in data set [6].

In data set [1], `N#CC(C#N)=C1C(=O)N(Cc2ccc(Br)cc2)c2ccc(S(=O)(=O)N3CCC[C@H]3COc3cccnc3)cc21` showed a logP of 3.22. The IC50 was 3.4 µM in data set [2]; 5.1 nM in data set [3]; 515 nM in data set [4]; 26.3 nM in data set [5]; above 50 µM in data set [6].

In data set [1], `CN1C(=O)C(=C(C#N)C#N)c2cc(S(=O)(=O)N3CCC[C@H]3COc3ccccc3)ccc21` had a logP of 1.71. Besides, the IC50 is 2.83 µM in data set [2]; 119 nM in data set [3]; 698 nM in data set [4]; 785 nM in data set [5]; above 50 µM in data set [6].

`N#CC(C#N)=C1C(=O)N(Cc2ccc(O)cc2)c2ccc(S(=O)(=O)N3CCC[C@H]3COc3ccccc3)cc21` displayed a logP in data set [1] of 2.77. Moreover, the IC50 in data set [2] is 2.3 µM; in data set [3], 31.8 nM; in data set [4], 744 nM; in data set [5], 126 nM; in data set [6], above 50 µM.

In data set [1], `COc1ccc(CN2C(=O)C(=C(C#N)C#N)c3cc(S(=O)(=O)N4CCC[C@H]4COc4cccnc4)ccc32)cc1` displayed a logP of 2.36. Besides, the IC50 was 3.9 µM in data set [2]; 7.8 nM in data set [3]; 610 nM in data set [4]; 29.6 nM in data set [5]; above 50 µM in data set [6].

In turn, `N#CC(C#N)=C1C(=O)N(Cc2ccc(Br)cc2)c2ccc(S(=O)(=O)N3CCC[C@H]3COc3ccccc3)cc21` registered a logP in data set [1] of 4.28. Further, the IC50 in data set [2] is 5.7 µM; in data set [3], 20.1 nM; in data set [4], 840 nM; in data set [5], 92.2 nM; in data set [6], above 50 µM.
